Data: US20180209956A1, “HTS Assay for Identifying Small Molecule Inhibitors of RAD52 and Uses of Identified Small Molecule Inhibitors for Treatment and Prevention of BRCA-Deficient Malignancies” (University of Iowa Research Foundation, priority 2015, published 2018)
Counter-ions that a name gives are not always drawn. Like-named read-outs stand apart in the source and are kept apart here.

Experiments:
RAD52-ssDNA interaction = molecular target: T1, RAD52-ssDNA interaction (Homo sapiens, UniProt P43351); assay: FRET-based ssDNA binding and wrapping assay (RAD52-Cy3-dT30-Cy5 complex); settings: for IC50: read-out: IC50 (DNA binding); for IC50 range for ssDNA binding and wrapping, in words: summary of Table 1
T1 construct: made in house
T1 sequence (P43351 1-418): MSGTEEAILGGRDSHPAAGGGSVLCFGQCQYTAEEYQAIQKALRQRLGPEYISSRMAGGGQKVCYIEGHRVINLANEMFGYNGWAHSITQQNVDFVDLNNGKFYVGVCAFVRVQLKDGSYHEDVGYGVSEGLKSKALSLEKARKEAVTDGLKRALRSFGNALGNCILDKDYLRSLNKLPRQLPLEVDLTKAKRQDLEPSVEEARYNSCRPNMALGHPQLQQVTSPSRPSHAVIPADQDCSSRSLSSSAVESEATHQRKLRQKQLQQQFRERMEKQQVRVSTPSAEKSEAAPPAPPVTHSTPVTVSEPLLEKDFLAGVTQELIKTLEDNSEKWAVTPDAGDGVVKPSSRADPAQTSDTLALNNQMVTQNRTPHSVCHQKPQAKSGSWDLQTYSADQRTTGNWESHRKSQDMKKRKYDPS
Protocol: We titrated increasing amounts of each compound into a cuvette containing preformed stoichiometric RAD52-Cy3-dT30-Cy5 complexes (1 nM Cy3-dT30-Cy5 and 8 nM RAD52). […] At each concentration of the compound, the FRET signal was adjusted for the change in Cy3 and Cy5 fluorescence in the presence of the compound, but in the absence of protein.
FRET-based DNA binding and annealing assays: FRET-based ssDNA binding, dsDNA binding, and annealing assays were carried out as previously described (Grimme et al., 2010, Grimme and Spies, 2011) using Cary Eclipse spectrofluorimeter (Varian) at 25° C. in buffer containing 30 mM Tris-Acetate pH7.5, 1 mM DTT, and 0.1 mg/mL BSA. Cy3 dye was excited at 530 nm and its emission was monitored at 565 nm. Emission of Cy5 acceptor fluorophore excited through the energy transfer from Cy3 donor is monitored at 660 nm simultaneously with emission of Cy3 dye. Both the excitation and the emission slit widths were set to 10 nm.
All experiments were performed in triplicates, and the data are shown as averages and standard deviations for three independent measurements. To remove possible experimental artifacts associated with chromogenic or fluorogenic compounds, as well as with the compounds that may quench or enhance Cy3 or Cy5 fluorescence, we also performed control titrations whereby we titrated each compound into 1 nM Cy3-dT30-Cy5 in the absence of RAD52. For each compound concentration we subtracted the difference in the FRET signal in the presence and absence of the compound from the respective FRET signal in the presence of RAD52. The FRET signal corrected for the compound fluorescence was calculated using the equation: […]
as previously described (Grimme et al., 2010, Grimme and Spies, 2011) and plotted as a function of compound concentration and fitted to the following inhibition model”
where FRET0 is the initial FRET value of RAD52-ssDNA complex in the absence of the compound and FRETmin is the FRET value at complete inhibition. FRET values were calculated as an average of three or more independent annealing reactions plotted against the concentration of the compound. Inhibition of the RAD52-dsDNA interaction was assayed in a similar experiment, except the stoichiometric complexes containing 1 nM molecules of Cy3-Oligo28-Cy5 duplex DNA and 10 nM RAD52. […] In all experiments, the FRET values for each data point were corrected for the effects of the compounds on the respective substrate in the absence of RAD52.

[1] = molecular target: T2, RAD52-mediated ssDNA annealing (Homo sapiens, UniProt P43351); assay: FRET-based RAD52-mediated ssDNA annealing assay; assay type: biochemical; settings: Table 1, read-out: IC50 Annealing Extent
T2 construct: made in house
T2 sequence (P43351 1-418): T1 sequence (P43351 1-418)
Description: These assays utilize two complementary single stranded 28-nucleotide-long substrates, which contain either Cy3 (T-28) or Cy5 (P-28) incorporated into the middle of the respective DNA strand. When the substrates are annealed by RAD52, the Cy3 and Cy5 dyes are separated by 3 base pairs and yield a high FRET signal (FIG. 2 Supplement 2). […] The annealing reactions were initiated by mixing two half reactions and observing the change in FRET over time in the presence of varying concentrations of small molecules. An increasing FRET value over time indicates formation of the dsDNA duplex which brings the two dyes in close proximity (FIG. 2 Supplement 2). Fitting the annealing data to a double exponential allowed us to calculate and compare the final extent of annealing at varying concentrations of each compound compared to RAD52 alone. We plotted the final extent of annealing vs the concentration of the compound and calculated an IC50 of annealing inhibition.
Annealing of complementary oligonucleotides by RAD52 was monitored under identical conditions as the binding assays described above. For each assay, the reaction master mixture containing 8 nM RAD52 protein in the presence and absence of the compounds at varying concentrations was prepared at room temperature and divided into two half reactions. Following baseline buffer and protein measurements, 0.5 nM of T-28 ssDNA substrate was added to the reaction cuvette and the signal was allowed to stabilize. The annealing reaction was initiated upon addition of the second half-reaction pre-incubated with 0.5 nM P-28 ssDNA substrate. The fluorescence of Cy3 and Cy5 were measured simultaneously over the reaction time course (500 s). FRETapp values were calculated as an average of three or more independent annealing reactions plotted against time (s). The average FRET values were fitted to a double exponential to calculate the final extent of annealing using Graphpad Prism4 software. The calculated annealing extent was plotted as a function of compound concentration and fitted to the same model as we used to determine IC50 values for the inhibition of DNA annealing.

[2] = Solubility observed during testing; assay type: physicochemical; settings: 30 mM Tris-Acetate pH 7.5, 1 mM DTT at 10 μM
[3] = Table 2, methods similar to Example 1
[4] = Table 1, ssDNA, 1 nM Cy3-dT30-Cy5, 8 nM RAD52

Compound | FRET value at saturation (RAD52-ssDNA interaction; Table 2) | IC50 (RAD52-ssDNA interaction; [3]) | FRET value at saturation (RAD52-ssDNA interaction; Table 1) | IC50 (RAD52-ssDNA interaction; [4]) | IC50 range for ssDNA binding and wrapping, in words (RAD52-ssDNA interaction) | further results
c1ccc(CSc2nnc3c(n2)OC(c2ccc4c(c2)OCO4)Nc2ccccc2-3)cc1 (stereo not drawn) [Compound R25, 6-(1,3-benzodioxol-5-yl)-3-(benzylthio)-6,7-dihydro[1,2,4]triazino[5,6-d][3,1]benzoxazepine] | 0.45 ± 0.01 | 1.6 ± 0.15 µM | – | – | – | –
Rolitetracycline [Compound ‘4’, reference compound] | – | – | 0.56 ± 0.04 | 29 ± 8.2 µM | mid micro-molar range | –
CCOc1ccc(C2Nc3ccccc3-c3nnc(SCc4ccccc4)nc3O2)cc1 (stereo not drawn) [Compound R26, 3-(benzylthio)-6-(4-ethoxyphenyl)-6,7-dihydro[1,24]triazino[5,6-d][3,1]benzoxazepine] | 0.46 ± 0.01 | 1.9 ± 0.5 µM | – | – | – | –
O=C(O[C@@H]1Cc2c(O)cc(O)cc2O[C@@H]1c1ccc(O)c(O)c1)c1cc(O)c(O)c(O)c1 [Compound 5, (−)-Epicatechin gallate] | – | – | 0.41 ± 0.004 | 0.255 ± 0.016 µM | nano-molar range | IC50 [1]: 20 ± 0.7 µM
COc1cc(N)c(Cl)cc1C(=O)N[C@H]1CCN(CCCOc2ccc(F)cc2)C[C@H]1OC [Compound 16, Cisapride Monohydrate, reference compound] | – | – | 0.50 ± 0.01 | – | – | –
O/N=C1/CC(O)(C(F)(F)F)Oc2ccccc21 (stereo not drawn) [Compound R21, 2-hydroxy-2-(trifluoromethyl)-2,3-dihydro-4H-chromen-4-one oxime] | 0.483 ± 0.01 | 76 ± 5.57 µM | – | – | – | –
Oc1cc(O)c2c(c1)O[C@H](c1ccc(O)c(O)c1)[C@H](O)C2 [Compound 7, (−)-Epicatechin] | – | – | 0.51 ± 0.01 | 1.45 ± 0.11 µM | micro-molar range | –
CC(C)(O)C1Cc2cc3ccc(=O)oc3cc2O1 (stereo not drawn) [Compound R24, 2-(1-hydroxy-1methylethyl)-2,3-dihydro-7H-furo[3,2-g]crhomen-7-one] | – | – | – | – | – | IC50 (DNA binding) (RAD52-ssDNA interaction; [3]): No inhibition
Asiatic Acid [Compound 18] | – | – | – | > 800 µM | high micro-molar range | IC50 [1]: > 100 µM
COc1ccc(C(=O)Nc2ccccc2C(=O)NC(C(=O)Nc2ccccc2)C(C)C)cc1 (stereo not drawn) [Compound R32, N-[1-(anilinocarbonyl)-2-methylpropyl]-2-[(4-methoxybenzoyl)amino]benzamide] | 0.45 ± 0.01 | 1.25 ± 0.34 µM | – | – | – | –
CC1(C)C(=O)C=C[C@@]2(C)C1=C(O)C(=O)[C@]1(C)[C@@H]2CC[C@@]2(C)[C@H](c3ccoc3)C[C@H]3O[C@]321 [Compound 17, Cedrelone] | – | – | – | > 300 µM | high micro-molar range | –
COc1cc(/C=N/NC(=O)CCC(C)O)ccc1O (stereo not drawn) [Compound R33, 4-hydroxy-N′-(4-hydroxy-3-methoxybenzyliden)pentanohydrazide] | 0.56 ± 0.01 | 0.849 ± 0.21 µM | – | – | – | –
CC1(C)COC(O)(C(F)(F)F)CC1=O (stereo not drawn) [Compound R22, 2-hydroxy-5,5-dimethyl-2-(trifluoromethyl)tetrahydro-4H-pyran-one] | 0.49 ± 0.01 | 184 ± 12 µM | – | – | – | –
C=C1c2cccc(O)c2C(=O)C2=C(O)[C@]3(O)C(=O)C(C(N)=O)=C(O)[C@@H](N(C)C)[C@@H]3[C@@H](O)[C@H]12 [Compound 3, Methacycline Hydrochloride, reference compound] | – | – | 0.47 ± 0.01 | 2 ± 0.17 µM | micro-molar range | IC50 [1]: 3.8 ± 0.2 µM
Cc1ccc2c(c1)C(=O)CC(O)(C(F)(F)F)O2 (stereo not drawn) [Compound R20, 2-hydroxy-6-methyl-2-(trifluoromethyl)-2,3-dihydro-4H-chromen-4-one] | 0.49 ± 0.01 | 0.938 ± 0.012 µM | – | – | – | –
COc1cc(C2C(C(=O)OCC3CCCO3)=C(C)NC3=C2C(=O)CC(C)(C)C3)ccc1O (stereo not drawn) [Compound R30, Tetrahydro-2-furanylmethyl 4-(4-hydroxy-3-methoxyphenyl)-2,7,7-trimethyl-5oxo-1,4,5,6,7,8-hexahydro-3-quinolinecarboxylate] | 0.59 ± 0.01 | 1.3 ± 0.19 µM | – | – | – | –
O=C1c2ccc(O)c(O)c2C(=O)c2c(O)ccc(O)c21 [Compound 15, Quinalizarin] | – | – | 0.51 ± 0.01 | 0.563 ± 0.04 µM | nano-molar range | IC50 [1]: 5.6 ± 0.6 µM
O=c1c(O)c(-c2ccc(O)c(O)c2)oc2c(O)c(O)cc(O)c12 [Compound 19, Gossypetin] | – | – | 0.49 ± 0.01 | 0.913 ± 0.058 µM | nano-molar range | IC50 [1]: 6 ± 2.3 µM
CC(O)CC1(O)C(=O)N(C)c2ccccc21 (stereo not drawn) [Compound R23, 3-hydroxy-3-(2-hydroxypropyl)-1-methyl-1,3-dihydro-2H-indol-2-one] | 0.39 ± 0.01 | 84.1 ± 1.04 µM | – | – | – | –
CCOc1cc(C(Nc2cc(C)ccn2)c2ccc3ccc(C)nc3c2O)ccc1OC (stereo not drawn) [Compound R28, 7-{(3-ethoxy-4-methyoxyphenyl)[(4-methyl-2-pyridinyl)amino]methyl}-2-methyl-8-quinolinol] | – | – | – | – | – | Solubility [2]: Insoluble in 30 mM Tris-Acetate pH 7.5, 1 mM DTT at 10 μM
NCCc1cc(O)c(O)cc1O [Compound 14, Oxidopamine] | – | – | 0.50 ± 0.01 | 0.779 ± 0.051 µM | nano-molar range | –
